What was measured:
CDK2/CyclinE = target: T1, CDK2/CyclinE (Homo sapiens, UniProt P24941); test: CDK2/CycE kinase assay (TR-FRET); format: biochemical; conditions: 2 mM ATP (high ATP); median; read-out: CDK2/CyclinE, 2 mM ATP (high ATP) IC50 - [mol/l] (median)
T1 construct: GST; purchased ProQinase GmbH (Freiburg, Germany); host or cells: insect cells (Sf9)
Excerpt: 2.4 CDK2/CycE Kinase Assay
CDK2/CycE-inhibitory activity of compounds of the present invention was quantified employing the CDK2/CycE TR-FRET assay as described in the following paragraphs.
Recombinant fusion proteins of GST and human CDK2 and of GST and human CycE, expressed in insect cells (Sf9) and purified by Glutathion-Sepharose affinity chromatography, were purchased from ProQinase GmbH (Freiburg, Germany). As substrate for the kinase reaction biotinylated peptide biotin-Ttds-YISPLKSPYKISEG (C-terminus in amid form) was used which can be purchased e.g. form the company JERINI peptide technologies (Berlin, Germany).
For the assay 50 nanoL of a 100 fold concentrated solution of the test compound in DMSO was pipetted into a black low volume 384 well microtiter plate or a black 1536 well microtiter plate (both Greiner Bio-One, Frickenhausen, Germany), 2 microL of a solution of CDK2/CycE in aqueous assay buffer [50 millimol/L Tris/HCl pH 8.0, 10 millimol/L MgCl2, 1.0 millimol/L dithiothreitol, 0.1 millimol/L sodium ortho-vanadate, 0.01% (v/v) Nonidet-P40 (Sigma)] were added and the mixture was incubated for 15 min at 22° C. to allow pre-binding of the test compounds to the enzyme before the start of the kinase reaction. Then the kinase reaction was started by the addition of 3 microL of a solution of adenosine-tri-phosphate (ATP, 3.33 millimol/L=>final conc. in the 5 microL assay volume is 2 millimol/L) and substrate (1.25 micromol/L=>final conc. in the 5 microL assay volume is 0.75 micromol/L) in assay buffer and the resulting mixture was incubated for a reaction time of 25 min at 22° C. The concentration of CDK2/CycE was adjusted depending of the activity of the enzyme lot and was chosen appropriate to have the assay in the linear range, typical concentrations were in the range of 10 ng/mL. The reaction was stopped by the addition of 3 microL of a solution of TR-FRET detection reagents (0.333 micromol/L streptavidine-XL665 [Cisbio Bioassays, Codolet, France] and 1.67 nanomol/L anti-RB(pSer807/pSer811)-antibody from BD Pharmingen [#558389] and 2 nanomol/L LANCE EU-W1024 labeled anti-mouse IgG antibody [Perkin-Elmer, product no. AD0077, as an alternative a Terbium-cryptate-labeled anti-mouse IgG antibody from Cisbio Bioassays can be used]) in an aqueous EDTA-solution (167 millimol/L EDTA, 0.2% (w/v) bovine serum albumin in 100 millimol/L HEPES pH 7.5).
The resulting mixture was incubated 1 h at 22° C. to allow the formation of complex between the phosphorylated biotinylated peptide and the detection reagents. Subsequently the amount of phosphorylated substrate was evaluated by measurement of the resonance energy transfer from the Eu-chelate to the streptavidine-XL. Therefore, the fluorescence emissions at 620 nm and 665 nm after excitation at 350 nm was measured in a TR-FRET reader, e.g. a Pherastar (BMG Labtechnologies, Offenburg, Germany) or a Viewlux (Perkin-Elmer). The ratio of the emissions at 665 nm and at […] was taken as the measure for the amount of phosphorylated substrate. The data were normalised (enzyme reaction without inhibitor=0% inhibition, all other assay components but no enzyme=100% inhibition).

CYCLIN K = target: T2, CYCLIN K (Homo sapiens, UniProt O75909); test: CYCLIN K nuclear protein level: immunofluorescence/high content analysis in CAL-120 cells; format: cell-based; conditions: 24 h, nuclear CCNK staining intensity, median, read-out: CYCLIN K degradation IF, DC50- [mol/l] (median)
T2 construct: endogenous in cells; host or cells: CAL-120 human breast cancer cells (DSMZ ACC 459)
T2 sequence (O75909 whole entry): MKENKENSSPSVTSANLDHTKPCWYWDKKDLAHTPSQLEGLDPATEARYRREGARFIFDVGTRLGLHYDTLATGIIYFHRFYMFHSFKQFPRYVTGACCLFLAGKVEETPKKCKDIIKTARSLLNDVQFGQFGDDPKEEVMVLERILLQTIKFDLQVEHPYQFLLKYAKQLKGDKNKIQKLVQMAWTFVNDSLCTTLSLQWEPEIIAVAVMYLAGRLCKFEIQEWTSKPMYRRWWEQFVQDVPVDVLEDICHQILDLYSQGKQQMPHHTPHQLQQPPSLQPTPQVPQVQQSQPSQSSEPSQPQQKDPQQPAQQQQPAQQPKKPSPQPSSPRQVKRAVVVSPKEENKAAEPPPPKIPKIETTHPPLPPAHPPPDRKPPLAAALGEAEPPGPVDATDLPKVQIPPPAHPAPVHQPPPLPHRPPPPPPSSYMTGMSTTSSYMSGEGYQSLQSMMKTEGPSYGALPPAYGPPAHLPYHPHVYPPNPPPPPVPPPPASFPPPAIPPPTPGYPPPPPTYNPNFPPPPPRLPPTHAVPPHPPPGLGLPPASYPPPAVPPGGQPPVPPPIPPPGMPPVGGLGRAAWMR
T2 sequence (Q9NYV4 whole entry partner): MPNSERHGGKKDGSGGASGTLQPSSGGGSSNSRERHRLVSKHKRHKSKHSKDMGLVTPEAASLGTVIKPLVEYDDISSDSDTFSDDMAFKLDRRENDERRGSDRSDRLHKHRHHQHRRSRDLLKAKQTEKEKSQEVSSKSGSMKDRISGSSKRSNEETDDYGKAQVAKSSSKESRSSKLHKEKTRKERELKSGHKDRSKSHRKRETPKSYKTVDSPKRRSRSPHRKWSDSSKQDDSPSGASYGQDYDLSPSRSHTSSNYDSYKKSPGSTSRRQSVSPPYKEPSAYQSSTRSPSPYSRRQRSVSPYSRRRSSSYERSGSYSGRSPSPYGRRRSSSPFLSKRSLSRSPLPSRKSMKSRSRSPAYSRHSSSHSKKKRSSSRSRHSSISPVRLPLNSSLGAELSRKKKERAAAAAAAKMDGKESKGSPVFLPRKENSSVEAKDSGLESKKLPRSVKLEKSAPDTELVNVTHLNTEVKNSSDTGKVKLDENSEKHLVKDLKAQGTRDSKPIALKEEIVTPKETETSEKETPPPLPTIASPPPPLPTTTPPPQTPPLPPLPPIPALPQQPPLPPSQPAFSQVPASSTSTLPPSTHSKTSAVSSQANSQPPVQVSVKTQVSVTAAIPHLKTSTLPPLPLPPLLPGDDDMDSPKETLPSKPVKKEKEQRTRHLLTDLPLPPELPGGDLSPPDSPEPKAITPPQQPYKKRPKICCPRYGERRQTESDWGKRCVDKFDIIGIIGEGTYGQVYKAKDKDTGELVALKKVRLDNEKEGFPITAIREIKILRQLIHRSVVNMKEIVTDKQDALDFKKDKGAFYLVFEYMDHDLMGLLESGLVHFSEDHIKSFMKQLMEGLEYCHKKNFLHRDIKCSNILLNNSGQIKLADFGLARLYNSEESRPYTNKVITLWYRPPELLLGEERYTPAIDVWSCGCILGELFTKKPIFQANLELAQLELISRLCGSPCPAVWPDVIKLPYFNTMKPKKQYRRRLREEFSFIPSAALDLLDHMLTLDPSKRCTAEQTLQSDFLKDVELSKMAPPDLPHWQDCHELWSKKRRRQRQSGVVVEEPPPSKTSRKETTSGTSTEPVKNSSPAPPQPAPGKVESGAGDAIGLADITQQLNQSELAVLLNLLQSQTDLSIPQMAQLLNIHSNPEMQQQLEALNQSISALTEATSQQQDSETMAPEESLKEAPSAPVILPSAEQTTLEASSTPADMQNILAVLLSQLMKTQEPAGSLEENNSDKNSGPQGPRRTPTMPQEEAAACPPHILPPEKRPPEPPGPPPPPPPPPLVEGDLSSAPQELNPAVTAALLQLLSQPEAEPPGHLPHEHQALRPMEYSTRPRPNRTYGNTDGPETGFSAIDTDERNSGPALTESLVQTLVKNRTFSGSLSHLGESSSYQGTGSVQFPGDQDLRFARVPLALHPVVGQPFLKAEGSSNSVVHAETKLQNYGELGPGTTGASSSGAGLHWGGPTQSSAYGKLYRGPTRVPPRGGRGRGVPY
Protocol: 7. CYCLIN K Nuclear Protein Level: Immunofluorescence/High Content Analysis
In the context of the present invention, the term “DC50 Cyclin K” refers to the DC50 values obtained according to the assay described in this section (7) herein below, i.e. the DC50 values for the degradation of Cyclin K.
CAL-120 human breast cancer cells (DSMZ ACC 459) are seeded in 1536-well microtiter plates (800 cells per well) containing 50 nanoL of compounds in Dose-Response. Control wells received DMSO or Reference Example 1. Plates are then incubated for 24 h at 37° C. in an humidified incubator and fixed with 4% PFA for 10 min. Then immunofluorescence (IF) against CYCLIN K (ThermoFisher Scientific CCNK Antibody # PA5-85020, rabbit, 1:200 dilution) is performed using standard IF protocols. Cells are then stained with Hoechst 33342 (Life Technologies, H-1399, 0.1 microg/mL) and imaged on an automated confocal microscopy system (e.g. Perkin Elmer Opera Phenix). Nuclear and cytoplasmic intensity as well as the nuclear/cytoplasmic intensity ratio is determined by automated image analysis using custom generated scripts (MetaXpress). Data is then transferred to Genedata Screener software, normalized to DMSO and control and DC50 values (degrading concentration to achieve 50% reduction of nuclear CCNK staining intensity relative to controls) are reported.

Row | IC50 (CDK2/CyclinE) [µM] | DC50 (CYCLIN K) [µM] | Compound
1 | > 20 | 0.0071 | CN1CCC(n2nc(NCc3nc4ccccc4[nH]3)c3ncc(C4CC4)nc32)CC1 [Example 1, N-[(1H-benzimidazol-2-yl)methyl]-6-cyclopropyl-1-(1-methylpiperidin-4-yl)-1H-pyrazolo[3,4-b]pyrazin-3-amine]
2 | > 20 | 0.0926 | CC1(C)CC(n2nc(NCc3nc4ccccc4[nH]3)c3ncc(C4CC4)nc32)CC(C)(C)O1 [Example 52, N-[(1H-benzimidazol-2-yl)methyl]-6-cyclopropyl-1-(2,2,6,6-tetramethyloxan-4-yl)-1H-pyrazolo[3,4-b]pyrazin-3-amine]
3 | > 20 | 0.00629 | OC[C@H]1C[C@@H](n2nc(NCc3nc4ccccc4[nH]3)c3ncc(C4CC4)nc32)C1 [Example 47, [cis-3-(3-{[(1H-benzimidazol-2-yl)methyl]amino}-6-cyclopropyl-1H-pyrazolo[3,4-b]pyrazin-1-yl)cyclobutyl]methanol]
4 | > 20 | 0.0172 | CC1COCCC1n1nc(NCc2nc3ccccc3[nH]2)c2ncc(C3CC3)nc21 (racemic) [Example 42, (±)-cis/trans-N-[(1H-benzimidazol-2-yl)methyl]-6-cyclopropyl-1-(3-methyloxan-4-yl)-1H-pyrazolo[3,4-b]pyrazin-3-amine]
5 | > 20 | 0.00535 | O[C@H]1C[C@@H](n2nc(NCc3nc4ccccc4[nH]3)c3ncc(C4CC4)nc32)C1 [Example 40, cis-3-(3-{[(1H-benzimidazol-2-yl)methyl]amino}-6-cyclopropyl-1H-pyrazolo[3,4-b]pyrazin-1-yl)cyclobutan-1-ol]
6 | > 20 | 0.0257 | c1ccc2[nH]c(CNc3nn(C4CCC4)c4nc(C5CC5)cnc34)nc2c1 [Example 49, N-[(1H-benzimidazol-2-yl)methyl]-1-cyclobutyl-6-cyclopropyl-1H-pyrazolo[3,4-b]pyrazin-3-amine]
7 | > 20 | 0.00327 | O[C@H]1CC[C@H](n2nc(NCc3nc4ccccc4[nH]3)c3ncc(C4CC4)nc32)CC1 [Example 50, trans-4-(3-{[(1H-benzimidazol-2-yl)methyl]amino}-6-cyclopropyl-1H-pyrazolo[3,4-b]pyrazin-1-yl)cyclohexan-1-ol]
8 | > 20 | 0.0387 | c1ccc2[nH]c(CNc3nn(C4CCCC4)c4nc(C5CC5)cnc34)nc2c1 [Example 39, N-[(1H-benzimidazol-2-yl)methyl]-1-cyclopentyl-6-cyclopropyl-1H-pyrazolo[3,4-b]pyrazin-3-amine]

The remaining lines, values behind:

Row | Compound | IC50 (CDK2/CyclinE) [µM] | DC50 (CYCLIN K) [µM]
9 | O=CO.c1ccc(-n2nc(NCc3nc4ccccc4[nH]3)c3ncc(C4CC4)nc32)cc1 [Example 13, formic acid—N-[(1H-benzimidazol-2-yl)methyl]-6-cyclopropyl-1-phenyl-1H-pyrazolo[3,4-b]pyrazin-3-amine (1/1)] | > 20 | 0.00311
10 | OCC1(Cn2nc(NCc3nc4ccccc4[nH]3)c3ncc(C4CC4)nc32)CCC1 [Example 74, {1-[(3-{[(1H-benzimidazol-2-yl)methyl]amino}-6-cyclopropyl-1H-pyrazolo[3,4-b]pyrazin-1-yl)methyl]cyclobutyl}methanol] | > 20 | 0.0136
11 | COCCC(C)n1nc(NCc2nc3ccccc3[nH]2)c2ncc(C3CC3)nc21 (single isomer, unassigned; (-)) [Example 58, (−)-N-[(1H-benzimidazol-2-yl)methyl]-6-cyclopropyl-1-[4-methoxybutan-2-yl]-1H-pyrazolo[3,4-b]pyrazin-3-amine] | > 20 | 0.0156
12 | OCCn1nc(NCc2nc3ccccc3[nH]2)c2ncc(C3CC3)nc21 [Example 66, 2-(3-{[(1H-benzimidazol-2-yl)methyl]amino}-6-cyclopropyl-1H-pyrazolo[3,4-b]pyrazin-1-yl)ethan-1-ol] | > 20 | 0.0203
13 | CN1CCC(n2nc(NCc3nc4cc(Cl)c(Cl)cc4[nH]3)c3ncc(C4CC4)nc32)CC1 [Example 19, 6-cyclopropyl-N-[(5,6-dichloro-1H-benzimidazol-2-yl)methyl]-1-(1-methylpiperidin-4-yl)-1H-pyrazolo[3,4-b]pyrazin-3-amine] | > 20 | 0.000339
14 | CN1CCC(n2nc(NCc3nc4c(F)cccc4[nH]3)c3ncc(C4CC4)nc32)CC1 [Example 3, 6-cyclopropyl-N-[(4-fluoro-1H-benzimidazol-2-yl)methyl]-1-(1-methylpiperidin-4-yl)-1H-pyrazolo[3,4-b]pyrazin-3-amine] | > 20 | 0.00115
15 | COc1cccc2[nH]c(CNc3nn(C4CCOCC4)c4nc(C5CC5)cnc34)nc12 [Example 24, 6-cyclopropyl-N-[(4-methoxy-1H-benzimidazol-2-yl)methyl]-1-(oxan-4-yl)-1H-pyrazolo[3,4-b]pyrazin-3-amine] | 17.9 | 0.00122
16 | c1ccc2[nH]c(CNc3nn(C4C[C@H]5CC[C@@H](C4)O5)c4nc(C5CC5)cnc34)nc2c1 (stereo partly drawn) [Example 45, exo/endo-N-[(1H-benzimidazol-2-yl)methyl]-6-cyclopropyl-1-(8-oxabicyclo[3.2.1]octan-3-yl)-1H-pyrazolo[3,4-b]pyrazin-3-amine] | > 18.2 | 0.00229
17 | CC(C)(O)CCn1nc(NCc2nc3ccccc3[nH]2)c2ncc(C3CC3)nc21 [Example 76, 4-(3-{[(1H-benzimidazol-2-yl)methyl]amino}-6-cyclopropyl-1H-pyrazolo[3,4-b]pyrazin-1-yl)-2-methylbutan-2-ol] | > 20 | 0.00811
18 | Fc1ccc2[nH]c(CNc3nn(C4CCOCC4)c4nc(C5CC5)cnc34)nc2c1 [Example 53, 6-cyclopropyl-N-[(5-fluoro-1H-benzimidazol-2-yl)methyl]-1-(oxan-4-yl)-1H-pyrazolo[3,4-b]pyrazin-3-amine] | > 20 | 0.00641
19 | O[C@H]1CC[C@H](n2nc(NCc3nc4cc(F)ccc4[nH]3)c3ncc(C4CC4)nc32)CC1 [Example 56, trans-4-(6-cyclopropyl-3-{[(5-fluoro-1H-benzimidazol-2-yl)methyl]amino}-1H-pyrazolo[3,4-b]pyrazin-1-yl)cyclohexan-1-ol] | > 20 | 0.00128
20 | O[C@H]1C[C@H](Cn2nc(NCc3nc4ccccc4[nH]3)c3ncc(C4CC4)nc32)C1 [Example 70, trans-3-[(3-{[(1H-benzimidazol-2-yl)methyl]amino}-6-cyclopropyl-1H-pyrazolo[3,4-b]pyrazin-1-yl)methyl]cyclobutan-1-ol] | > 20 | 0.0116
21 | Cc1cccc2[nH]c(CNc3nn(C4CCN(C)CC4)c4nc(C5CC5)cnc34)nc12 [Example 8, 6-cyclopropyl-N-[(4-methyl-1H-benzimidazol-2-yl)methyl]-1-(1-methylpiperidin-4-yl)-1H-pyrazolo[3,4-b]pyrazin-3-amine] | > 20 | 0.00622
